Results on two molecules are retold here after ChEMBL document CHEMBL5393446, “3-(1-oxo-5-(piperidin-4-yl)isoindolin-2-yl)piperidine-2,6-dione derivatives and uses thereof” (2022).

The assay concerns the target Zinc finger protein Helios (Homo sapiens) (UniProt Q9UKS7). In words: Induction of IKZF2 degradation in human GripTite 293 MSR cells at 30 uM incubated for 24 hrs by PathHunter assay relative to control. Type of assay: cell-based.

Chain of Zinc finger protein Helios (Homo sapiens) (Q9UKS7 whole entry): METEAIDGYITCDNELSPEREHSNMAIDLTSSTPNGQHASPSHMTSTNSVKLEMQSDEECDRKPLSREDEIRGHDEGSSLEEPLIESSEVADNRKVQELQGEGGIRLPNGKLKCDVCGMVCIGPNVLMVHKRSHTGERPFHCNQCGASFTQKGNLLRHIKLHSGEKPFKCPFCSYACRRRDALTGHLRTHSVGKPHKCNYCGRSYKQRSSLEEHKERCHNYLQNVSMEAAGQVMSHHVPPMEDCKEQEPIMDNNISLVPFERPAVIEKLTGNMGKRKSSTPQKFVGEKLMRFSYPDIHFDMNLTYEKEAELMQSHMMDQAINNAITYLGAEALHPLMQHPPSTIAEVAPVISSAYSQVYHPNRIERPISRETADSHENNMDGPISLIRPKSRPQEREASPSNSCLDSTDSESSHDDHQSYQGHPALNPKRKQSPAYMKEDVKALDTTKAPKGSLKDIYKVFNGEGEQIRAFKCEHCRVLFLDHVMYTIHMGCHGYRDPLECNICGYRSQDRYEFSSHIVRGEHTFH

On to `CC1CC(c2ccc3c(c2)CN(C2CCC(=O)NC2=O)C3=O)CC(C)N1Cc1ccccc1` (configuration not stated), for which the Activity is 35%.

Molecule `CC1CC(c2ccc3c(c2)CN(C2CCC(=O)NC2=O)C3=O)CC(C)N1` (configuration not stated) registered an Activity of 30%.
